Source: publication PMC8174488, “4-Arylthiosemicarbazide derivatives as a new class of tyrosinase inhibitors and anti-Toxoplasma gondii agents” (Journal of Enzyme Inhibition and Medicinal Chemistry, 2021)
Values joined by “and” are separate entries in the source; they are usually repeats but may differ in a detail not shown here. Identical values can stand only once. Like-named read-outs stand apart in the source and are kept apart here.

Tests used:
[1] = test system: Hs27 cell line; assay: Cytotoxicity assay (MTT) on human fibroblast Hs27 cells; format: cell-based
Procedure: (§1) Cell viability assay was performed according to international standards (ISO 10993–5:2009(E)), using tetrazolium salt (MTT, Sigma-Aldrich) and mouse fibroblasts L929 cells. Culture medium RPMI 1640, without phenol red (Biowest, Nuaille, France) supplemented with 10% FBS, 2 mM L-glutamine (Sigma-Aldrich), 100 I.U./mL penicillin, 100 µg/mL streptomycin were used. Briefly, 1 × 10^4/well of L929 cells were placed in 96-well plates and incubated for 24 h at 37 °C and 10% CO2. Afterwards, the old culture medium was replaced with 100 µL of the compound, drug or inhibitor, diluted in culture medium, and the cells treated for 24 h. Additionally, cells were treated with 0.03–4.0% concentration of DMSO as the solvent (data not shown). Then, 50 µL of 1 mg/mL of MTT solution in RPMI 1640 without phenol red was added to each well and incubated for 2 h at 37 °C and 10% CO2. Next, cell culture medium was aspirated carefully and 150 µL of DMSO was added to each well, and the plates were gently mixed. Then, 25 µL 0.1 M glycine buffer (pH 10.5) (Sigma-Aldrich) was added. The optical density at 570 nm using a multi-mode microplate reader SpectraMax® i3 (Syngen, Taipei City, Taiwan) was recorded. The results were expressed as a percentage of viability compared to untreated cells. All experiments were performed in triplicate. Cytotoxicity assay using human fibroblast Hs27 cells was also performed as described above (included in Supplementary Material).

[2] = test system: T. gondii RH strain; design: method as in PMID 30744161, PMID 31022878; conditions: 50% inhibition of T. gondii proliferation in vitro; reported previously, listed for comparison; cited from earlier work
[3] = test system: L929 cells; conditions: cited from earlier work
[4] = test system: L929 cells; assay: Cell viability assay (MTT, ISO 10993-5) on L929 mouse fibroblasts; format: cell-based; conditions: 24 h, concentration for 30% inhibition of cell proliferation
From the text: First, we evaluated the cytotoxic effects of 1b–9b, which is necessary prior to measuring anti-Toxoplasma and Tyr inhibition in order to exclude cytotoxic compounds. […] Cytotoxicity was estimated using mouse fibroblast (L929) cells line via MTT assay, according to the international standards ISO 10993–5:2009(E). […] Therefore, the obtained results were expressed as CC30, which was defined as the highest concentration of the compound that causes 30% damage of cells and was considered according to ISO as non-toxic.
The L929 mouse fibroblast (ATTC® CCL-1™, Manassas, VA) was routinely maintained in RPMI 1640 media (R8758, Sigma-Aldrich, Suffolk, UK), supplemented with 10% foetal bovine serum (Foetal Bovine Serum, ATCC® 30–2020™), 100 I.U./mL penicillin and 100 µg/mL streptomycin (Penicillin-Streptomycin Solution ATCC® 30–2300™). Cells were trypsinised (Trypsin-EDTA Solution, 1X ATCC® 30–2101™) twice a week and seeded at a density of 1 × 10^6 per T25 cell culture flask and incubated at 37 °C and 10% CO2 to achieve a confluent monolayer.
as §1

[5] = test system: T. gondii RH strain; assay: Antiparasitic assay: T. gondii RH proliferation in Hs27 cells, [3H]uracil incorporation; format: cell-based, Toxoplasma gondii; conditions: for IC50: Toxoplasma gondii, HS27; for SR (selectivity ratio): ratio of CC30 (L929) to IC50Tg
[6] = target: T1, Tyr from mushrooms (Agaricus bisporus, UniProt C7FF04); assay: Inhibition of tyrosinase activity assay (screening at 25 µM); format: biochemical, mushroom; conditions: read-out: Tyrosinase inhibition, at 25 µM compound, L-tyrosine substrate, 10 U Tyr, 30 min
T1 sequence (G1K3P4 entry or part of it): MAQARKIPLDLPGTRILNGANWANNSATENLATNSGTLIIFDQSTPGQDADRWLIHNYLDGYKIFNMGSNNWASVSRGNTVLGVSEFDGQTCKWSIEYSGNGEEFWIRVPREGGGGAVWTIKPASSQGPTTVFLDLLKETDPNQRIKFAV
T1 sequence (C7FF04 1-392): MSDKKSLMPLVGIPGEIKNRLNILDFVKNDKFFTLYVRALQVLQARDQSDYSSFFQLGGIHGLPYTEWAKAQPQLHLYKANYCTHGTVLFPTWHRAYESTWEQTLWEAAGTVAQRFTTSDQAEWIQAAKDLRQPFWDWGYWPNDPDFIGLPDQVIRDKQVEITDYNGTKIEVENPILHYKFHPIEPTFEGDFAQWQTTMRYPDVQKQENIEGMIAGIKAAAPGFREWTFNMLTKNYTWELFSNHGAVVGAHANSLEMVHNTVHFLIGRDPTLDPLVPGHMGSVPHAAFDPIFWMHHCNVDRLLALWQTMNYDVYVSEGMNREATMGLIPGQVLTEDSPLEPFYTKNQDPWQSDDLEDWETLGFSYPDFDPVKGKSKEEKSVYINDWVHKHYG
Procedure: In our study, we used Tyr from mushrooms (T3824, Sigma) for all experiments. All compound dilutions, L-tyrosine a Tyr substrate, and Tyr were prepared in 50 mM phosphate buffer (pH 6.5). […] 100% Tyr activity we used for the sample without addition compound/inhibitor. […] The average results from three experiments are shown.

[7] = target: T1, Tyr from mushrooms; assay: Kinetic analysis of the inhibition of tyrosinase (Lineweaver-Burk, Dixon, [L-tyrosine]/V vs [I] plots); format: biochemical, mushroom; conditions: Lineweaver–Burk plots
Procedure: Therefore, these compounds were subsequently subjected to detailed kinetic studies to evaluate inhibition parameters. […] Dixon plots (Figure 7) were used in evaluating the KI values, while the plots of [L-tyrosine]/V vs. [I] (Figure 8), were employed to determine IC50Tyr[50]. [I] represents the concentration of the inhibitor. Rates were monitored spectrophotometrically by detecting changes in absorbance at 492 nm.
Solutions containing 80 µL of 0.625, 1.25, or 2.5 mM L-tyrosine and 50 µL of 20, 100, or 200 µM inhibitor were added to a 96-well plate. Then, solution containing 70 µL of Tyr (10 U) was added and the initial rate of dopachrome formation was determined through detecting the increase in absorbance at the wavelength of 492 nm (Δ492/min). […] In order to determine the inhibition constants KI the Dixon plots were constructed, whereas the plots of [L-tyrosine]/V vs. inhibitor concentration [I] were used for IC50Tyr evaluation. The results from three experiments are shown.

[8] = test system: T. gondii tachyzoites RH-GFP strain; assay: Influence of compounds during Toxoplasma growth, assay A (compounds present only during penetration); format: cell-based, Toxoplasma gondii; conditions: compound at IC50Tg for 3 h during penetration, then 24 h free medium, Hs27 cells, vs untreated cells
[9] = test system: T. gondii tachyzoites RH-GFP strain; assay: Influence of compounds during Toxoplasma growth, assay B (compounds present 24 h after penetration); format: cell-based, Toxoplasma gondii; conditions: 3 h infection without compound, then compound at IC50Tg for 24 h, Hs27 cells, vs untreated cells

Row | Compound | CC30 [1] [µM] | IC50 [2] [µM] | CC30 [3] [µM] | CC30 [4] | IC50 [5] [µM] | SR (selectivity ratio) [5] | CC30 ([1]; Hs27 cell line, MTT) [µM] | melting point [°C] | further results
1 | Cc1nc[nH]c1C(=O)NNC(=S)Nc1cccc([N+](=O)[O-])c1 [Compound 1a] | 479.22 | 46.1 | 440.95 |  |  |  |  |  | 
2 | O=C(NNC(=S)Nc1cccc([N+](=O)[O-])c1)C1CCCC1 [Compound 1b, 1-Cyclopentanoyl-4–(3-nitrophenyl)thiosemicarbazide] |  |  |  | 616.52 µM | 180 | 3.43 | 603.98 | 134 to 136 | 
3 | O=C(NNC(=S)Nc1ccc([N+](=O)[O-])cc1)C1CCCC1 [Compound 2b, 1-Cyclopentanoyl-4–(4-nitrophenyl)thiosemicarbazide] |  |  |  | 378.39 µM and 378.4 µM | 144 | 2.63 | 405.09 | 170 to 172 | inhibition at 25 µM [6]: 45.6 ± 2.8%; character of inhibition [7]: mixed character of inhibition; number of infected cells (infection index) [8]: significant reduction; number of tachyzoites per PV [8]: significant reduction; number of tachyzoites per PV [9]: significant reduction; percentage of infected cells [9]: not observable
4 | Cc1nc[nH]c1C(=O)NNC(=S)Nc1ccccc1Cl [Compound 3a] | 502.21 | 115 | 462.12 |  |  |  |  |  | 
5 | O=C(NNC(=S)Nc1ccccc1Cl)C1CCCC1 [Compound 3b, 4–(2-Chlorophenyl)-1-cyclopentanoylthiosemicarbazide] |  |  |  | 554.73 µM | 368 | 1.51 | 512.31 | 178 to 180 | 
6 | Cc1nc[nH]c1C(=O)NNC(=S)Nc1ccccc1Br [Compound 4a] | 728.41 | 78.1 | 579.61 |  |  |  |  |  | 
7 | O=C(NNC(=S)Nc1ccccc1Br)C1CCCC1 [Compound 4b, 4–(2-Bromophenyl)-1-cyclopentanoylthiosemicarbazide] |  |  |  | 806.60 µM | 218 | 3.70 | > 1000 | 179 to 181 | 
8 | Cc1nc[nH]c1C(=O)NNC(=S)Nc1ccccc1I [Compound 5a] | 278.72 | 50.6 | 253.17 |  |  |  |  |  | 
9 | O=C(NNC(=S)Nc1ccccc1I)C1CCCC1 [Compound 5b, 1-Cyclopentanoyl-4–(2-iodophenyl)thiosemicarbazide] |  |  |  | 333.25 µM | 128 | 2.60 | 369.69 | 182 to 184 | 
10 | O=C(NNC(=S)Nc1cccc(I)c1)C1CCCC1 [Compound 6b, 1-Cyclopentanoyl-4–(3-iodophenyl)thiosemicarbazide] |  |  |  | 117.68 µM | 54.5 | 2.16 | 135.87 | 173 to 175 | inhibition at 25 µM [6]: 43.9 ± 3.4%; character of inhibition [7]: mixed character of inhibition; number of infected cells (infection index) [8]: significant reduction; number of tachyzoites per PV [8]: significant reduction; number of tachyzoites per PV [9]: significant reduction; percentage of infected cells [9]: not observable
11 | COc1ccccc1NC(=S)NNC(=O)c1[nH]cnc1C [Compound 7a] | 498.12 | 108 | 452.06 |  |  |  |  |  | 
12 | COc1ccccc1NC(=S)NNC(=O)C1CCCC1 [Compound 7b, 1-Cyclopentanoyl-4–(2-methoxyphenyl)thiosemicarbazide] |  |  |  | 886.29 µM | 327 | 2.71 | > 1000 | 176 to 178 | 
13 | Cc1ccc(NC(=S)NNC(=O)c2[nH]cnc2C)cc1 [Compound 8a] | 421.89 | 199 | 361.73 |  |  |  |  |  | 
14 | Cc1ccc(NC(=S)NNC(=O)C2CCCC2)cc1 [Compound 8b, 1-Cyclopentanoyl-4–(4-methylphenyl)thiosemicarbazide] |  |  |  | 463.37 µM | 181 | 2.55 | 445.10 | 175 to 177 | 
15 | Cc1nc[nH]c1C(=O)NNC(=S)Nc1cc(F)ccc1F [Compound 9a] | 612.48 | 172 | 509.11 |  |  |  |  |  | 
16 | O=C(NNC(=S)Nc1cc(F)ccc1F)C1CCCC1 [Compound 9b, 1-Cyclopentanoyl-4–(2,5-difluorophenyl)thiosemicarbazide] |  |  |  | 860.66 µM | 321 | 2.68 | > 1000 | 178 to 180 | 
17 | O=c1cc(CO)occ1O [Kojic acid (KA), Kojic acid, reference compound] |  |  |  | 1558.28 µM | 501 |  | > 2500 |  | CC30 ([4]; listed as KA): 1558.0 µM; number of tachyzoites per PV [8]: significant reduction; number of tachyzoites per PV [9]: significant reduction; percentage of infected cells [9]: not observable
18 | CCc1nc(N)nc(N)c1-c1ccc(Cl)cc1 [Pyrimethamine (PYR), Pyrimethamine, reference compound] |  |  |  | 181.97 µM | 11.5 | 15.85 |  |  | 
